According to US9944659B2, “Boron-containing diacylhydrazine compounds” (Intrexon Corporation, priority 2014, dated 2018):
Converted amounts (≈) assume the structure as drawn. Like-named read-outs stand apart in the source and are kept apart here.

Experiment: Solubility (24 hrs equilibration at RT, HPLC-UV)
Format: physicochemical
Conditions: thermodynamic from solid, target concentration 5 mg/ml, 24 hrs at RT
Method: Representative Compounds of the Disclosure were tested for solubity (Table 4) as follows:
0.1 M Phosphate Buffer Ionic Strength ˜0.15M
Simulated Intestinal Fluid pH 7.5 (USP)
Weigh ˜2 mgs of compound into clean glass 1 dram vails.
Add ˜[…] of appropriate media to vial to yield a target concentration of 5 mg/ml.
Place vials on a rotating shaker and equilibrate for 24 hrs. at RT.
Remove supernatant to microcentrifuge tubes and centrifuge at 1300 rpm for 30 minutes.
Remove an aliquot of supernatant, dilute accordingly with acetonitrile.
Assay Samples by HPLC-UV Against Standards.

[1] = biorelevant, Simulated Intestinal Fluid pH 7.5 (USP), read-out: Solubility SIF
[2] = pH 7.4, aqueous buffer, 0.1 M Phosphate Buffer, read-out: Solubility pH 7.4

Structure (SMILES) | solubility at 24 h [1] | solubility at 24 h [2]
Cc1cc(C)cc(C(=O)N(NC(=O)c2ccc3c(c2)B(O)NCC3)C(C)(C)C)c1 [compound 18, N′-(tert-butyl)-N′-(3,5-dimethylbenzoyl)-1-hydroxy-1,2,3,4-tetrahydrobenzo[c][1,2]azaborinine-7-carbohydrazide] | 492 µg/mL (≈ 1250 µM) | 505 µg/mL (≈ 1280 µM)
Cc1cc(C)cc(C(=O)N(NC(=O)c2ccc(CN(C)C)c(B(O)O)c2)C(C)(C)C)c1 [compound 11, (5-(2-(tert-butyl)-2-(3,5-dimethylbenzoyl)hydrazine-1-carbonyl)-2-((dimethylamino)methyl)phenyl)boronic acid] | 4650 µg/mL (≈ 10900 µM) | 4700 µg/mL (≈ 11100 µM)
CC1=Nc2cc(C(=O)NN(C(=O)c3cc(C)cc(C)c3)C(C)(C)C)ccc2B(O)O1 [compound 2, N′-(tert-butyl)-N′-(3,5-dimethylbenzoyl)-1-hydroxy-3-methyl-1H-benzo[c][1,5,2]oxazaborinine-6-carbohydrazide] | 4050 µg/mL (≈ 9940 µM) | 4310 µg/mL (≈ 10600 µM)
COc1cccc(C(=O)NN(C(=O)c2ccc(B(O)O)c(NS(=O)(=O)c3ccccc3)c2)C(C)(C)C)c1C [compound 16, (4-(1-(tert-butyl)-2-(3-methoxy-2-methylbenzoyl)hydrazine-1-carbonyl)-2-(phenylsulfonamido)phenyl)boronic acid] | 24.1 µg/mL (≈ 44.7 µM) | 6.9 µg/mL (≈ 12.8 µM)
CNCc1ccc(C(=O)NN(C(=O)c2cc(C)cc(C)c2)C(C)(C)C)cc1B(O)O [compound 10, (5-(2-(tert-butyl)-2-(3,5-dimethylbenzoyl)hydrazine-1-carbonyl)-2-((methylamino)methyl)phenyl)boronic acid] | 4800 µg/mL (≈ 11700 µM) | 4870 µg/mL (≈ 11800 µM)
Cc1cc(C)cc(C(=O)N(NC(=O)c2ccc(CC#N)c(B(O)O)c2)C(C)(C)C)c1 [compound 19, (5-(2-(tert-butyl)-2-(3,5-dimethylbenzoyl)hydrazine-1-carbonyl)-2-(cyanomethyl)phenyl)boronic acid] | 31.4 µg/mL (≈ 77.1 µM) | 16.8 µg/mL (≈ 41.2 µM)
COc1cccc(C(=O)NN(C(=O)c2ccc3c(c2)B(O)NC3)C(C)(C)C)c1C [compound 9, N-(tert-butyl)-1-hydroxy-N′-(3-methoxy-2-methylbenzoyl)-2,3-dihydro-1H-benzo[c][1,2]azaborole-6-carbohydrazide] | 4510 µg/mL (≈ 11400 µM) | 4920 µg/mL (≈ 12400 µM)
COc1cccc(C(=O)NN(C(=O)c2ccc3c(c2)N=C(C)OB3O)C(C)(C)C)c1C [compound 12, N-(tert-butyl)-1-hydroxy-N′-(3-methoxy-2-methylbenzoyl)-3-methyl-1H-benzo[c][1,5,2]oxazaborinine-6-carbohydrazide] | 3800 µg/mL (≈ 8970 µM) | 3760 µg/mL (≈ 8880 µM)
Cc1cc(C)cc(C(=O)NNC(=O)c2ccc3c(c2)N=C(C(F)(F)F)OB3O)c1 [compound 6, N′-(3,5-dimethylbenzoyl)-1-hydroxy-3-(trifluoromethyl)-1H-benzo[c][1,5,2]oxazaborinine-6-carbohydrazide] | 0.4 µg/mL (≈ 0.987 µM) | 1.7 µg/mL (≈ 4.2 µM)
Cc1cc(C)cc(C(=O)N(NC(=O)c2ccc3c(c2)N=COB3O)C(C)(C)C)c1 [compound 3, N′-(tert-butyl)-N′-(3,5-dimethylbenzoyl)-1-hydroxy-1H-benzo[c][1,5,2]oxazaborinine-6-carbohydrazide] | 90.2 µg/mL (≈ 229 µM) | 39.4 µg/mL (≈ 100 µM)
Cc1cc(C)cc(C(=O)N(NC(=O)c2ccc3c(c2)NC(=S)N(c2ccccc2)B3O)C(C)(C)C)c1 [compound 4, N′-(tert-butyl)-N′-(3,5-dimethylbenzoyl)-1-hydroxy-2-phenyl-3-thioxo-1,2,3,4-tetrahydrobenzo[c][1,5,2]diazaborinine-6-carbohydrazide] | 2640 µg/mL (≈ 5280 µM) | 3560 µg/mL (≈ 7120 µM)
Cc1cc(C)cc(C(=O)N(NC(=O)c2ccc(B(O)O)c(NS(=O)(=O)c3ccccc3)c2)C(C)(C)C)c1 [compound 7, (4-(2-(tert-butyl)-2-(3,5-dimethylbenzoyl)hydrazine-1-carbonyl)-2-(phenylsulfonamido)phenyl)boronic acid] | 10.7 µg/mL (≈ 20.4 µM) | 4.1 µg/mL (≈ 7.83 µM)
Cc1cc(C)cc(C(=O)N(NC(=O)c2ccc(B(O)O)c(NCC#N)c2)C(C)(C)C)c1 [compound 17, (4-(2-(tert-butyl)-2-(3,5-dimethylbenzoyl)hydrazine-1-carbonyl)-2-((cyanomethyl)amino)phenyl)boronic acid] | 59.3 µg/mL (≈ 140 µM) | 0.13 µg/mL (≈ 0.308 µM)
Cc1cc(C)cc(C(=O)N(NC(=O)c2ccc3c(c2)B(O)ON=C3)C(C)(C)C)c1 [compound 20, N′-(tert-butyl)-N′-(3,5-dimethylbenzoyl)-1-hydroxy-1H-benzo[d][1,2,6]oxazaborinine-7-carbohydrazide] | 3330 µg/mL (≈ 8470 µM) | 2680 µg/mL (≈ 6820 µM)
Cc1cc(C)cc(C(=O)N(NC(=O)c2ccc3c(c2)B(O)NC3)C(C)(C)C)c1 [compound 1, N′-(tert-butyl)-N′-(3,5-dimethylbenzoyl)-1-hydroxy-2,3-dihydro-1H-benzo[c][1,2]azaborole-6-carbohydrazide] | 4870 µg/mL (≈ 12900 µM) | > 5000 µg/mL
COc1cccc(C(=O)NN(C(=O)c2ccc3c(c2)N=COB3O)C(C)(C)C)c1C [compound 13, N-(tert-butyl)-1-hydroxy-N′-(3-methoxy-2-methylbenzoyl)-1H-benzo[c][1,5,2]oxazaborinine-6-carbohydrazide] | 334 µg/mL (≈ 815 µM) | 221 µg/mL (≈ 540 µM)
COc1cccc(C(=O)NN(C(=O)c2ccc3c(c2)B(O)OC3)C(C)(C)C)c1C [compound 8, N-(tert-butyl)-1-hydroxy-N′-(3-methoxy-2-methylbenzoyl)-1,3-dihydrobenzo[c][1,2]oxaborole-6-carbohydrazide] | 121 µg/mL (≈ 305 µM) | 42.3 µg/mL (≈ 107 µM)
COc1cccc(C(=O)NN(C(=O)c2ccc3c(c2)NC(=O)N(c2ccccc2)B3O)C(C)(C)C)c1C [compound 15, N-(tert-butyl)-1-hydroxy-N′-(3-methoxy-2-methylbenzoyl)-3-oxo-2-phenyl-1,2,3,4-tetrahydrobenzo[c][1,5,2]diazaborinine-6-carbohydrazide] | 417 µg/mL (≈ 833 µM) | 540 µg/mL (≈ 1080 µM)
